Assay results from patent US12286488B2, “Anti-dinitolmide monoclonal antibodies and hybridoma cell strain that secretes them” (JIANGNAN UNIVERSITY, priority 2020, dated 2025).
≈ marks a conversion by molar mass, not a printed value.

System: anti-dinitolmide monoclonal antibody secreted by hybridoma cell strain DAS3H10
Experiment: indirect competitive ELISA (IC50 and cross-reaction rates)
Assay type: binding, mouse
Conditions: for IC50: dinitolmide monoclonal antibody; for cross-reaction rates: relative to dinitolmide
From the text: The basic steps for the preparation of the DAS3H10 cell line provided by the invention are: • (1) Preparation and identification of immunogen: 3,5-dinitro-2-methylbenzoic acid, which is a structure analogue of dinitolmide, was used as a raw material and connected to the amino group of the protein carrier with the activated ester method. After the reaction was completed, the complete immunogen and the unconnected small molecule hapten were separated by dialysis. And the complete immunogen was identified by UV-VIS absorption spectrometry. • (2) Immunization of mice: BALB/c mice aged 6-8 weeks were selected for immunization. The immunogen, which was emulsified with […], was injected to the BALB/c mice by subcutaneous injection at multiple points. The Faust complete adjuvant was used for the first immunization, the Faust incomplete adjuvant was used for the booster immunization, and the commixture of the immunogen and normal saline was used for the sprint immunization by intraperitoneal injection. Each immunization dose was half of the previous immunization dose, and the interval between each immunization was three weeks. After the third immunization, blood collection was collected every one week for the detection of serum titer and inhibition. • (3) Cell fusion and cell line establishment: the cell fusion of mouse spleen cells and mouse myeloma cells was accomplished by polyethylene glycol (PEG 2000). After cultured culturing in HAT medium, there was detection of positive cells wells by indirect ELISA, and further detection of the inhibition effect of positive cell wells by indirect competition ELISA. Positive cell wells with the best inhibition effect were subcloned three times by limiting dilution assay, and finally the hybridoma cell strain DAS3H10 was finally screened. • (4) Identification of the properties of hybridoma cell strains: the identification of hybridoma cell strains were determined by HRP, and IC50, cross-reaction rates and affinity were determined by ELISA.
4. Cell screening and cell line establishment: during the cell fusion, half of the RPMI-1640 screening medium of the fusion cell was changed on the 3rd day, and all was replaced by the RPMI-1640 screening medium with 20% fetal bovine serum, 1% of 100×HT on the fifth day. The cell supernatant was used for screening on the 7th day, which is divided into two steps: the first step is to screen out the positive cell wells with indirect ELISA, the second step is to detect the inhibition effect of positive cell wells by indirect competition ELISA with dinitolmide used as the standard substance. The cell wells with good inhibition effect of dinitrotolamine were selected to be subcloned with finite dilution assay, and the inhibition effect was detected in the same way. This process was repeated three times to obtain the cell line.
6. […] Each sample was added to 3 wells. […]

| IC50 [µg/mL] | Compound | cross-reaction rates [%] |
| --- | --- | --- |
| >0.5 | nicarbazine | <5 |
| >0.5 | N#CC(c1ccc(Cl)cc1)c1c(Cl)cc(-n2ncc(=O)[nH]c2=O)cc1Cl (centres unmarked) [dikjuli] | <5 |
| >0.5 | Cc1cc(-n2c(=O)[nH]c(=O)n(C)c2=O)ccc1Oc1ccc(SC(F)(F)F)cc1 [torquoly] | <5 |
| 0.00901 (≈ 0.04 µM) | Cc1c(C(N)=O)cc([N+](=O)[O-])cc1[N+](=O)[O-] [dinitolmide] | 100 |
